Test results reported in patent publication US20260209777A1, “TARGETING GLYCOSYLPHOSPHATIDYLINOSITOL (GPI) PATHWAY PROTEINS TO TREAT OVARIAN CANCER” (UNIVERSITY OF MASSACHUSETTS, priority 2023, published 2026).

Tests used:
Format in all cases: cell-based, human
OVCAR8 cells [1] = experiment: In vitro phagocytosis assay of OVCAR8 cells by PBMC-derived M2 macrophages; conditions: bestatin 20 μM; for macrophage-mediated phagocytosis: OVCAR8, tosedostat 20 μM, ARM1 2 μM, vs DMSO; for phagocytosis of OVCAR8 cells: tosedostat 10 μM vs DMSO, anti-CD24 antibody (clone SN3) vs IgG (FIG. 9C)
Text: Macrophage Generation and Stimulation: Primary human donor-derived macrophages were generated as described previously (Martinez, Curr Protocol Immunol 2012, Chapter 14:14.28.1-14.28.23). In brief, Leukopaks from anonymous donors were obtained from the Rhode Island Blood (Providence, RI) and peripheral blood […] (PBMCs) were isolated by density gradients centrifugation using Ficoll Paque Plus (Sigma-Aldrich, Cat #17-1440-02) followed by RBC lysis using RBC lysis buffer (eBioscience, Cat #00-4333-57). For monocyte isolation, PBMCs were incubated in Monocyte Attachment Medium (Sigma-Aldrich, Cat #C-28051) for 1 hour at 37° C. and 5% CO2 and then washed three times in Iscove's Modified Dulbecco's Medium (IMDM) (Gibco, Cat #12440053) to remove non-adherent cells. The remaining monocytes were detached and seeded in 96-well plates and cultured at 37° C. and 5% CO2 in IMDM supplemented with 10% FBS (Atlanta Biologicals, Cat #S11550) and 20 ng/ml recombinant human M-CSF (Peprotech, Cat #AF-300-25). After 4 days monocytes were then treated with 20 ng/ml recombinant human IL-4 (Peprotech, Cat #200-04) and 10 ng/mL recombinant human IL-10 (PeproTech, Cat #200-10) for another 3-4 days to obtain M2 polarized macrophages. Macrophage differentiation was confirmed morphologically using microscopy. M2-macrophage polarization was confirmed by immunophenotyping of the M2 marker CD206 using PE-conjugated anti-human anti-CD206 antibody (BioLegend, Cat #321106, clone 15-2, 1:100 dilution). In vitro Phagocytosis Assays: To facilitate the quantification of phagocytic events, we adapted a microscopy-based fluorescence phagocytosis […] al., J Immunol Methods 2009, 342(1-2):71-7; Lindner et al., Biotechniques 2020, 68(5):245-250) for use with a Celigo imaging cytometer. […] Cells were incubated with pHrodo Red, SE (Invitrogen, Cat #P36600) on ice for 30 min and then co-cultured with PBMC-derived M2 macrophages (prepared as described above) at a ratio of 1:2 (OVCAR8/B cells: macrophages) for 2 hours in a humidified 5% CO2 incubator at 37° C. Phagocytic events were quantified by counting the number of red fluorescent (pHrodo+) cells per well using a Celigo Imaging Cytometer (Nexcelom). EmGFP was used for the visualization of cancer cells in imaging Phagocytic events were also quantified using a previously-described flow cytometry-based assay (Barkal et al., Nature 2019, 572(7769):392-396; […] et al., Biomedicines 2022, 10(5):1175). In brief, M2 macrophages co-cultured with OVCAR8/EmGFP-luc cells were detached using TrypLE Express (GibcoTM, cat #12604013), stained with APC anti-human CD11b clone ICRF44 (BioLegend, Cat #982604) and analyzed by flow cytometry (BioRad ZE5). Double-positive EmGFP+CD11b+ cells were considered phagocytic events.

OVCAR8 cells [2] = experiment: Cell viability assay (PrestoBlue) in OVCAR8 cells; conditions: OVCAR8, 5, 10 or 20 μM bestatin vs DMSO (FIG. 6F)
Experimental: Cell Viability Assay: OVCAR8 cells were transduced with a lentivirus expressing non-silencing (NS) or CD24 shRNA (Table 1) and analyzed for cell viability using PrestoBlue Cell Viability Reagent (Invitrogen™, Cat #A13261) as per the manufacturer's instructions, and relative cell growth was determined. […]

[3] = tested on: CD24 cell surface expression in MCF7 breast cancer cells; experiment: CD24 flow cytometry analysis in MCF7 cells; conditions: MCF7, 10 or 20 μM bestatin vs DMSO (FIG. 7D)
Experimental: Flow Cytometry Analysis: For cell surface protein staining, 1×10^5-1×10^6 cells were first incubated with Fc receptor blocking solution, Human TruStain FcX™ (BioLegend, Cat #422301) for 10 minutes at room temperature. Cells were washed once in FACS buffer (1×PBS, 1.0% bovine serum albumin (BSA) (Sigma) and 0.2% sodium azide (Sigma), and then incubated with antibodies (given below) for 30 minutes at 4° C. in the dark. Cells were also stained with 7-AAD (Biolegend, Cat #420404) for dead cell exclusion, and flow cytometry analysis was performed using a Bio-Rad ZE5 Cell Analyzer. Following antibodies used in this study (all antibodies were used at 1:50 dilution unless otherwise noted): APC anti-human CD24 (BioLegend, Cat #311118, clone ML5), PE anti-human CD24 (eBioscience, Cat #12-0247-42, clone SN3), APC anti-human CD47 (BioLegend, Cat #323124, clone CC2C6), APC anti-human § 2-microglobulin (BioLegend, Cat #395711, clone A17082A), PE anti-human HLA-A2 (MHC-class I) (BioLegend, Cat #343305, clone BB7.2), APC anti-human CD11b (BioLegend, Cat #982604, clone ICRF44), APC anti-mouse F4/80 antibody (BioLegend, Cat #123116, clone BM8), APC-streptavidin (Thermo Fisher Scientific, Cat #SA1005, 1:100 dilution), PE anti-Calreticulin (Invitrogen, Catalog #MA5-15382, 1:200 dilution). […]

SKOV3 cells = experiment: Cell viability assay (PrestoBlue) in SKOV3 cells; conditions: SKOV3, 5, 10 or 20 μM bestatin vs DMSO (FIG. 6F)

| SMILES | macrophage-mediated phagocytosis (OVCAR8 cells [1]) | phagocytosis of OVCAR8 cells (OVCAR8 cells [1]) | cell viability (OVCAR8 cells [2]) | CD24 cell surface expression (MFI) [3] | cell viability (SKOV3 cells) |
| --- | --- | --- | --- | --- | --- |
| CC(C)C[C@H](NC(=O)[C@@H](O)[C@H](N)Cc1ccccc1)C(=O)O [bestatin] | substantially increased | susceptible | no effect | did not decrease | no effect |
| CC(C)C[C@@H](C(=O)N[C@H](C(=O)OC1CCCC1)c1ccccc1)[C@H](O)C(=O)NO [tosedostat] | increased | susceptible | – | – | – |
